In ChEMBL document CHEMBL5523719, “Structure-activity relationship study of new carbazole sulfonamide derivatives as anticancer agents with dual-target mechanism” (Eur J Med Chem, 2024):
The source made the active and inactive calls. No cut-off for these calls is given here.

Key:
L02 = assay: Antiproliferation activity against human L02 cells measured after 72 hrs incubation by MTT assay; type: functional, cell-based; settings: L02, 72 h
NCI-H460 = assay: Antiproliferation activity against human NCI-H460 cells measured after 72 hrs incubation by MTT assay; type: functional, cell-based; settings: NCI-H460, 72 h
KB = assay: Antiproliferation activity against human KB cells measured after 72 hrs incubation by MTT assay; type: functional, cell-based
MIA PaCa-2 = assay: Antiproliferation activity against human MIA PaCa-2 cells measured after 72 hrs incubation by MTT assay; type: functional, cell-based; settings: MIA PaCa-2, 72 h
MDA-MB-231 = assay: Antiproliferation activity against human MDA-MB-231 cells measured after 72 hrs incubation by MTT assay; type: functional, cell-based; settings: MDA-MB-231, 72 h
Bel-7402 = assay: Antiproliferation activity against human Bel-7402 cells measured after 72 hrs incubation by MTT assay; type: functional, cell-based; settings: Bel-7402, 72 h
HepG2 [1] = assay: In vivo antitumor activity against human HepG2 cells xenografted in mouse assessed as inhibition of tumor growth treated iv every other day for 22 days; type: functional, organism-based; settings: time 22.0 day
[2] = Toxicity in mouse xenografted with human HepG2 cells assessed as body weight change at 10 to 20 mg/kg, iv every other day for 22 days; type: organism-based; settings: in vivo, 528 h, dose 10-20 mg/kg, time 22 day
[3] = Solubility of the compound; type: physicochemical
HMEC-1 [4] = assay: Angiogenic activity against human HMEC-1 cells assessed as decrease in vascular area measured after 48 hrs by Endothelial tube formation assay; type: functional, cell-based; settings: dose 1-100 nM
HMEC-1 [5] = assay: Anti-proliferative activity against human HMEC-1 cells measured after 48 hrs; type: functional, cell-based; settings: HMEC-1, 48 h
NCI/ADR-RES = assay: Antiproliferation activity against human MCF7/ADR cells measured after 72 hrs incubation by MTT assay; type: functional, cell-based
HMEC-1 [6] = assay: Anti-migration activity in human HMEC-1 cells assessed as inhibition of cell migration at 5 nM measured after 48 hrs by Scratching assay; type: functional, cell-based
MCF7 [7] = assay: Induction of apoptosis in human MCF7 cells assessed as viable cells at 50 nM measured after 48 hrs by AnnexinV/PI double staining assays (reference value: 91.20%); type: functional; settings: read-out: Activity
MCF7 [8] = assay: Induction of apoptosis in human MCF7 cells assessed as early apoptotic cells at 50 nM measured after 48 hrs by AnnexinV/PI double staining assays (reference value: 5.32%); type: functional
MCF7 [9] = assay: Antiproliferation activity against human MCF7 cells measured after 72 hrs incubation by MTT assay; type: functional, cell-based; settings: MCF7, 72 h
MCF7 [10] = assay: Induction of apoptosis in human MCF7 cells assessed as multinuclear cells at 50 nM measured after 24 hrs by fluorescent microscopy; type: functional, cell-based
MCF7 [11] = assay: Induction of apoptosis in human MCF7 cells assessed as necrotic cells at 50 nM measured after 48 hrs by AnnexinV/PI double staining assays (reference value: 0.89%); type: functional
MCF7 [12] = assay: Induction of apoptosis in human MCF7 cells assessed as late apoptotic cells at 50 nM measured after 48 hrs by AnnexinV/PI double staining assays (reference value: 2.60%); type: functional
[13] = Half life in Sprague-Dawley rat at 10 mg/kg, iv; type: ADME, organism-based; settings: in vivo
[14] = AUC (0 to last) in Sprague-Dawley rat at 10 mg/kg, iv; type: ADME, organism-based; settings: in vivo
[15] = Clearance in Sprague-Dawley rat at 10 mg/kg, iv; type: ADME, organism-based; settings: in vivo
[16] = MRT (0 to last) in Sprague-Dawley rat at 10 mg/kg, iv; type: ADME, organism-based; settings: in vivo
HepG2 [17] = assay: In vivo antitumor activity against human HepG2 cells xenografted in mouse assessed as inhibition of tumor growth treated at 20 mg/kg, iv every other day for 22 days relative to control; type: functional; settings: HepG2, 528 h, time 22 day, read-out: TGI
[18] = Initial plasma concentration in Sprague-Dawley rat at 10 mg/kg, iv; type: ADME, organism-based
MCF7 [19] = assay: Induction of cell cycle arrest in human MCF7 cells assessed as accumulation of cells at G0/G1 phase at 500 nM measured after 24 hrs by flow cytometry (reference value: 61.73%); type: functional
MCF7 [20] = assay: Induction of cell cycle arrest in human MCF7 cells assessed as accumulation of cells at G2/M phase at 500 nM measured after 24 hrs by flow cytometry (reference value: 22.84%); type: functional

## COc1cc(OC)c(NS(=O)(=O)c2ccc3c(c2)c2ccc(O)cc2n3C)cc1Cl
L02
  IC50: 33 nM
NCI-H460
  IC50: 14.5 nM
KB
  IC50: 70 nM
MIA PaCa-2
  IC50: 55.5 nM
MDA-MB-231
  IC50: 41.6 nM

## COc1ccc(NS(=O)(=O)c2ccc3c(c2)c2ccc(NC(=O)[C@@H](N)CO)cc2n3C)c(OC)n1.Cl
Bel-7402
  IC50: 1450 nM
HepG2 [1]
  TGI: Dose-Dependent Effect
[2]
  Activity: Non-Toxic
[3]
  solubility: 2000 µg/mL

## COc1ccc(NS(=O)(=O)c2ccc3c(c2)c2ccc(N)cc2n3C)cc1
L02
  IC50: > 400 nM
NCI-H460
  IC50: > 400 nM
KB
  IC50: > 400 nM
MIA PaCa-2
  IC50: > 400 nM
MDA-MB-231
  IC50: > 400 nM

## Cn1c2ccc(S(=O)(=O)Nc3cccc(-c4ccn[nH]4)c3)cc2c2ccc(N)cc21
L02
  IC50: 94.5 nM
NCI-H460
  IC50: 325 nM
KB
  IC50: 244 nM
MIA PaCa-2
  IC50: 61.2 nM
MDA-MB-231
  IC50: 72.5 nM

## COc1cc(OC)c(NS(=O)(=O)c2ccc3c(c2)c2ccc(N)cc2n3C)c(OC)c1
L02
  IC50: 30.9 nM
NCI-H460
  IC50: 14 nM
KB
  IC50: 18.1 nM
MIA PaCa-2
  IC50: 31 nM
MDA-MB-231
  IC50: 39.9 nM

## COc1cc(NS(=O)(=O)c2ccc3c(c2)c2ccc(N)cc2n3C)cc(OC)c1OC
L02
  IC50: 21 nM
NCI-H460
  IC50: 13.1 nM
KB
  IC50: 34.5 nM
MIA PaCa-2
  IC50: 24.4 nM
MDA-MB-231
  IC50: 16.1 nM

## CN1CCN(Cc2ccc(NS(=O)(=O)c3ccc4c(c3)c3ccc(O)cc3n4C)cc2C(F)(F)F)CC1
L02
  IC50: > 400 nM
NCI-H460
  IC50: > 400 nM
KB
  IC50: > 400 nM
MIA PaCa-2
  IC50: > 400 nM

## COc1ccc(NS(=O)(=O)c2ccc3c(c2)c2ccc(NC(=O)CN(C)C)cc2n3C)c(OC)n1.Cl
Bel-7402
  IC50: 1400 nM
[3]
  solubility: 25000 µg/mL

## COc1ccc(NS(=O)(=O)c2ccc3c(c2)c2ccc(O)cc2n3C)c(OC)n1
HMEC-1 [4]
  Activity: Dose-Dependent Effect
L02
  IC50: 51.6 nM
NCI-H460
  IC50: 43.8 nM
KB
  IC50: 104 nM
HMEC-1 [5]
  IC50: 6.42 nM
NCI/ADR-RES
  IC50: 88.2 nM
MIA PaCa-2
  IC50: 51.8 nM
HMEC-1 [6]
  inhibition: Active
MCF7 [7]
  viability at 0.05 µM: 45.6%
MCF7 [8]
  Activity: 39.03%
MCF7 [9]
  IC50: 41.5 nM
MCF7 [10]
  Activity: Active
MDA-MB-231
  IC50: 98.4 nM
MCF7 [11]
  Activity: 0.04%
MCF7 [12]
  Activity: 5.65%
[3]
  solubility: < 100 µg/mL

## COc1ccc(NS(=O)(=O)c2ccc3c(c2)c2ccc(NC(=O)[C@@H](N)C(C)C)cc2n3C)c(OC)n1.Cl
[13]
  half-life: 34.4 min
[14]
  AUC(0-t): 2290 ng·h/mL
Bel-7402
  IC50: 480 nM
[15]
  clearance: 72.9 mL/min/kg
HepG2 [1]
  TGI: Dose-Dependent Effect
[16]
  MRT last: 7.26 min
[2]
  Activity: Non-Toxic
[3]
  solubility: 4000 µg/mL
HepG2 [17]
  inhibition in vivo at 20 mg/kg: 71%
[18]
  C0: 22000 ng/mL

## COc1ccc(NS(=O)(=O)c2ccc3c(c2)c2ccc(NC(=O)CN4CCCCC4)cc2n3C)c(OC)n1.Cl
Bel-7402
  IC50: 8210 nM
[3]
  solubility: 4700 µg/mL

## COc1ccc(/C=C\c2cc(OC)c(OC)c(OC)c2)cc1O [COMBRETASTATIN A4]
HMEC-1 [5]
  IC50: 6.42 nM
NCI/ADR-RES
  IC50: 12.5 nM
MCF7 [9]
  IC50: 32.7 nM
MCF7 [19]
  Activity: 3.41%
MCF7 [20]
  Activity: 3.4%

## COc1cc(OC)c(NS(=O)(=O)c2ccc3c(c2)c2ccc(N)cc2n3C)cc1Cl
L02
  IC50: 18 nM
NCI-H460
  IC50: 47.5 nM
KB
  IC50: 46 nM
MIA PaCa-2
  IC50: 13.3 nM
MDA-MB-231
  IC50: 29 nM

## COc1ccc(NS(=O)(=O)c2ccc3c(c2)c2ccc(N)cc2n3C)c(OC)c1
L02
  IC50: 42.2 nM
MIA PaCa-2
  IC50: 57.2 nM
MDA-MB-231
  IC50: 155 nM

## COc1ccc(OC)c(NS(=O)(=O)c2ccc3c(c2)c2ccc(N)cc2n3C)c1
L02
  IC50: 11.6 nM
NCI-H460
  IC50: 25.5 nM
KB
  IC50: 18.3 nM
MIA PaCa-2
  IC50: 19.9 nM
MDA-MB-231
  IC50: 18.9 nM

## COc1ccc(NS(=O)(=O)c2ccc3c(c2)c2ccc(NC(=O)CCN(C)C)cc2n3C)c(OC)n1.Cl
Bel-7402
  IC50: 5020 nM
[3]
  solubility: 11000 µg/mL

## COc1ccc(NS(=O)(=O)c2ccc3c(c2)c2ccc(NC(=O)CCCN4CCOCC4)cc2n3C)c(OC)n1.Cl
Bel-7402
  IC50: 8470 nM
[3]
  solubility: 6800 µg/mL

## COc1ccc(NS(=O)(=O)c2ccc3c(c2)c2ccc(NC(=O)CN4CCN(C)CC4)cc2n3C)c(OC)n1.Cl
Bel-7402
  IC50: 18700 nM
[3]
  solubility: 27000 µg/mL

## COc1ccc(NS(=O)(=O)c2ccc3c(c2)c2ccc(NC(=O)[C@@H](N)Cc4ccc(O)cc4)cc2n3C)c(OC)n1.Cl
Bel-7402
  IC50: 1880 nM
[3]
  solubility: 2000 µg/mL

## COc1ccc(NS(=O)(=O)c2ccc3c(c2)c2ccc(N)cc2n3C)c(OC)n1
L02
  IC50: 109 nM
NCI-H460
  IC50: 33 nM
KB
  IC50: 40.4 nM
Bel-7402
  IC50: 520 nM
MIA PaCa-2
  IC50: 58.3 nM
MDA-MB-231
  IC50: 35.4 nM
[3]
  solubility: < 100 µg/mL

## COc1ccc(OC)c(NS(=O)(=O)c2ccc3c(c2)c2ccc(O)cc2n3C)c1
L02
  IC50: 45.6 nM
NCI-H460
  IC50: 12.5 nM
KB
  IC50: 17.5 nM
MIA PaCa-2
  IC50: 0.85 nM
MDA-MB-231
  IC50: 0.93 nM

## COc1cc(NS(=O)(=O)c2ccc3c(c2)c2ccc(O)cc2n3C)cc(OC)c1OC
L02
  IC50: 43.1 nM
NCI-H460
  IC50: 34.6 nM
KB
  IC50: 32 nM
MIA PaCa-2
  IC50: 14.6 nM
MDA-MB-231
  IC50: 39.2 nM

## COc1ccc(NS(=O)(=O)c2ccc3c(c2)c2ccc(NC(=O)CN)cc2n3C)c(OC)n1.Cl
Bel-7402
  IC50: 1200 nM
[3]
  solubility: 500 µg/mL

## COc1ccc(NS(=O)(=O)c2ccc3c(c2)c2ccc(NC(=O)CCN4CCOCC4)cc2n3C)c(OC)n1.Cl
Bel-7402
  IC50: 13700 nM
[3]
  solubility: 13000 µg/mL

## COc1ccc(NS(=O)(=O)c2ccc3c(c2)c2ccc(O)cc2n3C)c(OC)c1
L02
  IC50: 54.4 nM
NCI-H460
  IC50: 40.5 nM
KB
  IC50: 78.8 nM
MIA PaCa-2
  IC50: 52.8 nM
MDA-MB-231
  IC50: 82.8 nM

## COc1cc([C@@H]2c3cc4c(cc3[C@H](O)[C@H]3COC(=O)[C@H]23)OCO4)cc(OC)c1OC [PODOFILOX]
L02
  IC50: 32.8 nM
NCI-H460
  IC50: 24.6 nM
KB
  IC50: 3.21 nM
Bel-7402
  IC50: 40 nM
MIA PaCa-2
  IC50: 19.7 nM
MDA-MB-231
  IC50: 80.5 nM

## CC(=O)O[C@H]1C(=O)[C@@]2(C)[C@H]([C@H](OC(=O)c3ccccc3)[C@]3(O)C[C@H](OC(=O)[C@H](O)[C@@H](NC(=O)c4ccccc4)c4ccccc4)C(C)=C1C3(C)C)[C@]1(OC(C)=O)CO[C@@H]1C[C@@H]2O [PACLITAXEL]
NCI/ADR-RES
  IC50: 464 nM
MCF7 [9]
  IC50: 28.7 nM

## COc1cc(NS(=O)(=O)c2ccc3c(c2)c2ccc(N)cc2n3C)c(OC)cc1N
L02
  IC50: 30.9 nM
NCI-H460
  IC50: 76.3 nM
KB
  IC50: 80.2 nM
MIA PaCa-2
  IC50: 33.2 nM
MDA-MB-231
  IC50: 85.7 nM
